Laboratory results as given in ChEMBL document CHEMBL1201862, “PubChem BioAssay data set” (2004).
Active and inactive are the calls of the source.

What was measured:
[1] = tested on: Streptococcus sp. 'group A'; assay: Streptococcus pyogenes SK(-)GAS viability under kanamycin – luminescence, BacTiterGlo, confirmation, counter-screen for streptokinase expression inhibitor project, dose response (AID 1900); type: functional, organism-based
Streptokinase A = molecular target: T1, Streptokinase A (Streptococcus pyogenes serotype M1, UniProt P10520); assay: viability-normalized secreted streptokinase activity reduction – plasminogen activation absorbance, OD405, dose response (AID 1914); type: functional, Streptococcus pyogenes M1 GAS;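 further: secreted streptokinase activity via plasminogen activation per viability signal from cell pellet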
T1 sequence (P10520 whole entry): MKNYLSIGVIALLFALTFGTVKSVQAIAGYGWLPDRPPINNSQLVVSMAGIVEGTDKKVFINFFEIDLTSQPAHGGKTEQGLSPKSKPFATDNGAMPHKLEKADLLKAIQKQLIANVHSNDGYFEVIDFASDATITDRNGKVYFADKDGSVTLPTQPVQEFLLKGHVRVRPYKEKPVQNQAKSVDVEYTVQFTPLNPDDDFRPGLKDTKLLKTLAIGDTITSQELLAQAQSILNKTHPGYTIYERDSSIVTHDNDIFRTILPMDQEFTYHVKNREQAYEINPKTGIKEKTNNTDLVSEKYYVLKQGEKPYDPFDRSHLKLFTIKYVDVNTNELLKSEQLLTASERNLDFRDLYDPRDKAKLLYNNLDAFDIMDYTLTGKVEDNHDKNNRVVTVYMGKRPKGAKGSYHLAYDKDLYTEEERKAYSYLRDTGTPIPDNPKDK

Streptococcus = assay: GAS UMAA2166 growth inhibition – luminescence, BacTiterGlo, counter-screen for streptokinase expression inhibitor project, dose response (AID 1915); type: functional, organism-based;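 further: potency for reduction of bacterial viability or growth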
[2] = molecular target: T2, Short transient receptor potential channel 4 (Mus musculus, UniProt Q9QUQ5); assay: block of DAMGO-driven TRPC4 calcium entry – cell-based, HEK293 TRPC4/mu-opioid, Fluo-4 calcium, dose response (AID 434942); type: functional;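 further: potency of inhibitors blocking the TRPC4 calcium response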
T2 sequence (Q9QUQ5 whole entry): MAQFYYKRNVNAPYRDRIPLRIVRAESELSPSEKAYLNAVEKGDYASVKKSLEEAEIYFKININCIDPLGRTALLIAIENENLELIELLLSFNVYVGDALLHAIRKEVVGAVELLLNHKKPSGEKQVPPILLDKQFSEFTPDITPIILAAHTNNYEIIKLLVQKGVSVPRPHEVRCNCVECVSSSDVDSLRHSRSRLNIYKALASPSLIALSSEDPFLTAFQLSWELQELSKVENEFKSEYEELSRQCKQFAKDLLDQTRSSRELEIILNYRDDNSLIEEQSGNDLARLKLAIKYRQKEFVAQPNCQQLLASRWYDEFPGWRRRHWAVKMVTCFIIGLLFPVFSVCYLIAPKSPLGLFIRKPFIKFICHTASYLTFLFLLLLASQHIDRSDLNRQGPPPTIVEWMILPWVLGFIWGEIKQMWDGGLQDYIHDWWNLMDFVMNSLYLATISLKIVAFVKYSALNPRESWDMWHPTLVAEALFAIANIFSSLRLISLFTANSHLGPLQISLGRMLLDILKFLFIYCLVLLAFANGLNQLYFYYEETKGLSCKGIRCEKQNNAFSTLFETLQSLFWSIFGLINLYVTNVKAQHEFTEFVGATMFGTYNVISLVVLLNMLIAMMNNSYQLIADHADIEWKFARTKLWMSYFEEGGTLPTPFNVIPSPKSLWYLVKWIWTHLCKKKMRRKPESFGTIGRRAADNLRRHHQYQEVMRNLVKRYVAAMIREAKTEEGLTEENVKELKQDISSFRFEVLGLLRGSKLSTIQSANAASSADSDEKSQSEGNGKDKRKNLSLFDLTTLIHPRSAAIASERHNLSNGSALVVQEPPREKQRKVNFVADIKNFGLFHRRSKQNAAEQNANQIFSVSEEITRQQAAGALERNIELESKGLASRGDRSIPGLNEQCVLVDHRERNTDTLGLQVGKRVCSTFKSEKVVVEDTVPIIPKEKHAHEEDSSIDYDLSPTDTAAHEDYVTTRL

Nonstructural protein 1 = Nonstructural protein 1 (Influenza A virus, UniProt Q194T2); type: functional, Influenza A virus (A/California/07/2009(H1N1))
Sequence of Nonstructural protein 1 (Q194T2 whole entry): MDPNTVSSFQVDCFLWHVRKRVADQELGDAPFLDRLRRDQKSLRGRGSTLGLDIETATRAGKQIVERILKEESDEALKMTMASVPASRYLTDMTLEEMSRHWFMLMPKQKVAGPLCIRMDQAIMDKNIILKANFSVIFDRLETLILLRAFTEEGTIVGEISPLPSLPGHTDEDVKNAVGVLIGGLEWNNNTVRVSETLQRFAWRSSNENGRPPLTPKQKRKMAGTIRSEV

INS1 = assay: INS-1E survival protection against cytokine death – cell-based, luminescence, retest, dose response (AID 449756); type: functional; conditions: Rattus norvegicus;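 further: cell death triggered by IL-1 beta plus TNF-alpha plus IFN-gamma mixture; protective hits raise ATP signal compared with cytokine alone wells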
[3] = IC50 of Artemis nuclease activity blockers – biochemical, fluorescence intensity, dose response (AID 720701); type: functional;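 further: Artemis endonuclease enzyme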
[4] = molecular target: Voltage-dependent T-type calcium channel subunit alpha-1H (Homo sapiens, UniProt O95180); type: functional;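 further: channel activity triggered by adding a high calcium stimulation buffer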
[5] = reduction of Shn3 3'UTR-driven luciferase in osteoblasts – cell-based, Clone20 osteoblasts, firefly luciferase, cherry-picked, dose response (AID 624132); type: functional;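 further: firefly luciferase luminescence from reporter carrying the Shn3 3'UTR in osteoblasts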
[6] = Shn3 3'UTR reporter signal decrease – cell-based, Clone20 osteoblasts, firefly luciferase, cherry-pick, set 2, Schnurri-3 inhibitor project, dose response (AID 720490); type: functional;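 further: actives lower the luminescence signal as inhibitors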
[7] = molecular target: 1-phosphatidylinositol 4,5-bisphosphate phosphodiesterase gamma-1 (Homo sapiens, UniProt P19174); assay: Counterscreen for inhibitors of phospholipase C isozymes (PLC-B3): Fluorescence-based biochemical high throughput dose response assay to identify inhibitors of phospholipase C isozymes (PLC-gamma1).
Sequence of 1-phosphatidylinositol 4,5-bisphosphate phosphodiesterase gamma-1 (P19174 whole entry): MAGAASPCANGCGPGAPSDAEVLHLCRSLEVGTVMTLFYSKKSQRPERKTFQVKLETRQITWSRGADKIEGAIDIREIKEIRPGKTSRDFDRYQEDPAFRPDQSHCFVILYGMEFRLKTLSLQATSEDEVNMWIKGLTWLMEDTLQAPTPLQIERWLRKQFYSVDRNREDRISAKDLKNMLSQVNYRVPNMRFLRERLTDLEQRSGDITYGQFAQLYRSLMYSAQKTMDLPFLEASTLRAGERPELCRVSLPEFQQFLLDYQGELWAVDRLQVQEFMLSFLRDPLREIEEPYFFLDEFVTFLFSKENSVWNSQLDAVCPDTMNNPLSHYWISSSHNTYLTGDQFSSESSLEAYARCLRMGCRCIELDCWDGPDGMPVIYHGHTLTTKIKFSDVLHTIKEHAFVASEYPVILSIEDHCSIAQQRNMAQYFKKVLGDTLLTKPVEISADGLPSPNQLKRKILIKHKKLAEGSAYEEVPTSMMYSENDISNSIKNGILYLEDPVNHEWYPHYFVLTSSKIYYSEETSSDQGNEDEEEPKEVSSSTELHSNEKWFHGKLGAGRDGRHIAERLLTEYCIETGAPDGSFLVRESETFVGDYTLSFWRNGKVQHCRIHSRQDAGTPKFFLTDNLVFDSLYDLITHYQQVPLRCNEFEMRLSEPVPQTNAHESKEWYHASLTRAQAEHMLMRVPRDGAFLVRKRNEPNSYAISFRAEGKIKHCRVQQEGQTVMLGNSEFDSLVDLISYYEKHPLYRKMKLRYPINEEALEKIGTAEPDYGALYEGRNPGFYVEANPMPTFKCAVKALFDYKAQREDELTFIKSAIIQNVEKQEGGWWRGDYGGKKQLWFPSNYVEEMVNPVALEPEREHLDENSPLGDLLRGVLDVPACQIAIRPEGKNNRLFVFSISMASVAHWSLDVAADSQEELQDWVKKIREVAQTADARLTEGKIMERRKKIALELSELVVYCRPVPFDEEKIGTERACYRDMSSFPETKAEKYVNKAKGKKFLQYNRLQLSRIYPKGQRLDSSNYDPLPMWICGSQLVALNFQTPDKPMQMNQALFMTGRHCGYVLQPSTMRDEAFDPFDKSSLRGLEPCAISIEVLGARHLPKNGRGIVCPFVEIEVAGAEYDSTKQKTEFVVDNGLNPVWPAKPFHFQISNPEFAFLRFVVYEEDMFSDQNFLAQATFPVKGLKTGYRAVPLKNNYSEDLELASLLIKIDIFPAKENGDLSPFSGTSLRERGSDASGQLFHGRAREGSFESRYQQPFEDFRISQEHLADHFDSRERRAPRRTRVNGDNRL

[8] = molecular target: 1-phosphatidylinositol 4,5-bisphosphate phosphodiesterase beta-3 (Homo sapiens, UniProt Q01970); assay: Fluorescence-based biochemical high throughput dose response assay to identify inhibitors of phospholipase C isozymes (PLC-B3).
Sequence of 1-phosphatidylinositol 4,5-bisphosphate phosphodiesterase beta-3 (Q01970 whole entry): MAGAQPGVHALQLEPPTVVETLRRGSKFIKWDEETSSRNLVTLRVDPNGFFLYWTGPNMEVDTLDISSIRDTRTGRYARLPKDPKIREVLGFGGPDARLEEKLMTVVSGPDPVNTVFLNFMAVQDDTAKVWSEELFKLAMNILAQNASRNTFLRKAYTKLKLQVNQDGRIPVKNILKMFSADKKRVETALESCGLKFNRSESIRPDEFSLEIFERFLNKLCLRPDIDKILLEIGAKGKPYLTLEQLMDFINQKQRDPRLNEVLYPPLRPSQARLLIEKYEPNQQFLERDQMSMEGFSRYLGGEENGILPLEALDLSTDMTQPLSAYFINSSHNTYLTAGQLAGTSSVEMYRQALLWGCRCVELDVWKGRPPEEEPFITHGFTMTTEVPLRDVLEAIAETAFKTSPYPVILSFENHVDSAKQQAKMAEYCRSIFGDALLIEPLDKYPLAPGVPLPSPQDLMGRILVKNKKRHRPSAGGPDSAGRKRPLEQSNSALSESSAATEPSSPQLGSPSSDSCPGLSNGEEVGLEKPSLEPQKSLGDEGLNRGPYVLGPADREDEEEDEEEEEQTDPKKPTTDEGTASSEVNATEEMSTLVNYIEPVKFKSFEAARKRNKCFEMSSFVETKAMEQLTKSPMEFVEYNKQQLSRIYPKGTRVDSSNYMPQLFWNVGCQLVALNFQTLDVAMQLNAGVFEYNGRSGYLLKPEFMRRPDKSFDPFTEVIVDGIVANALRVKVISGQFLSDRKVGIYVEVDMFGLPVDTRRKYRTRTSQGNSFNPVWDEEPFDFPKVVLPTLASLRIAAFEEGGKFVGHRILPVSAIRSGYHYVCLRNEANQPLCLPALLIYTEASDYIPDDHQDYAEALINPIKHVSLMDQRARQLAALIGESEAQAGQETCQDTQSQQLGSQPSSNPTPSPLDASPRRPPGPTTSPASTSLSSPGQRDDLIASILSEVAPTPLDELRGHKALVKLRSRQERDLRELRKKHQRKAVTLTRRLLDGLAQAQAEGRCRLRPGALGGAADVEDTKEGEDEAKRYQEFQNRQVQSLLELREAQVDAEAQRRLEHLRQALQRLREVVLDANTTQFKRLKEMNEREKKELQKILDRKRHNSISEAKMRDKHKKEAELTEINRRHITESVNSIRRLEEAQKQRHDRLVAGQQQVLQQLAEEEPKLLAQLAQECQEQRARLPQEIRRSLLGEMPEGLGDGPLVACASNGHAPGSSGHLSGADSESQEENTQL

Paired box protein Pax-8 = Paired box protein Pax-8 (Homo sapiens, UniProt Q06710); assay: PAX8 transcriptional activity inhibition in RMG-I – RMG-I cells, luciferase, cherry-pick, dose response (AID 687027); type: functional, cell-based;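 further: luciferase reporter driven by Pax8 target thyroperoxidase promoter measured by SteadyGlo luminescence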
Sequence of Paired box protein Pax-8 (Q06710 whole entry): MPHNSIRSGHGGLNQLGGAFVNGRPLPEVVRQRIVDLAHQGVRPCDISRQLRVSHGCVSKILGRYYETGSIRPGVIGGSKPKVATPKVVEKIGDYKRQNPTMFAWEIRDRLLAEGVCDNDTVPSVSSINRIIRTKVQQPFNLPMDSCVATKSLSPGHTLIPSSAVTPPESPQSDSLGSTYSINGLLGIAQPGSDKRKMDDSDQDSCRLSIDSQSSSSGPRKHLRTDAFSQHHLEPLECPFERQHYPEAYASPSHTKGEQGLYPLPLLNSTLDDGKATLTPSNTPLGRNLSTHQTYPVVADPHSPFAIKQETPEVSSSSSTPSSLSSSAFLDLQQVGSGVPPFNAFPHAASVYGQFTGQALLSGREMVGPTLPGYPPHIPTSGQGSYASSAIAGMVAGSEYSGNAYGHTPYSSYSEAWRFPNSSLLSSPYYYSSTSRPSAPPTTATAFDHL

[9] = A2780 cell killing – plate reader, dry powder samples, cytotoxicity control, dose response (AID 743046); type: functional, cell-based
[10] = CMV-driven luciferase expression suppression in HEK293 – cell-based, luminescence, dry powder, counter-screen for Pax8 inhibitor project, dose response (AID 743020); type: functional
[11] = OVCAR-3 cell viability loss – plate reader, dry powder samples, PAX8 inhibitor project, dose response (AID 743044); type: functional, cell-based
[12] = IGROV1 cell killing – plate reader, dry powder samples, PAX8 inhibitor project, dose response (AID 743043); type: functional, cell-based; conditions: IGROV-1
[13] = OVCAR8 cell viability loss – plate reader, dry powder samples, PAX8 project, dose response (AID 743197); type: functional, cell-based; conditions: OVCAR-8
[14] = Late stage counterscreen for inhibitors of Trypanosoma brucei methionyl tRNA synthetase (MetRS): Luminescence-based cell-based high throughput dose response assay to identify compounds that are cytotoxic to Jurkat human T lymphocyte cells.; type: functional

c1ccc(-c2nc(NCc3ccco3)c3ccccc3n2)nc1
active: EC50 [1] 3.14 µM | EC50 (Streptococcus) 12.1 µM | EC50 [2] 0.335 µM | IC50 (Nonstructural protein 1) 14.5 µM | AC50 (INS1) 3.41 µM | IC50 [3] 8.96 µM
> 150 µM (not active): EC50 (Streptokinase A)

Cc1cccc(-c2noc(CN(C(=O)C(c3ccccc3)c3ccccc3)C(C)C)n2)c1
active: EC50 [4] 6.72 µM | AC50 [5] 6.27 µM | AC50 [6] 12.3 µM

CCCCN=C(S)NNC(=O)c1csc(C)c1
inactive: IC50 [7] > 122 µM | IC50 [8] > 122 µM

COc1ccc2c3c(n(C)c2c1)[C@H](CO)N(Cc1ccccc1)CC31CCN(S(=O)(=O)c2ccc(C)cc2)CC1
active: AC50 (Paired box protein Pax-8) 6.41 µM | AC50 [9] 17.4 µM | AC50 [10] 14.3 µM | AC50 [11] 17.8 µM | AC50 [12] 51.1 µM | AC50 [13] 13.2 µM

C[C@H]1CN([C@@H](C)CO)C(=O)Cc2cc(NC(=O)Nc3ccc4c(c3)OCO4)ccc2O[C@@H]1CN(C)CC1CCCCC1
active: AC50 (Paired box protein Pax-8) 31.2 µM | AC50 [9] 22.2 µM | AC50 [13] 62.9 µM

CCO[C@@H]1OC(C(=O)NCc2nc3ccccc3[nH]2)=C[C@H](c2ccc(Br)cc2)[C@H]1CCCO
inactive: IC50 [14] 45.4 µM
